From PMC11847258, “Phase I trial of the combination of the pan-ErbB inhibitor neratinib and mTOR inhibitor everolimus in advanced cancer patients with ErbB family gene alterations” (ESMO Open, 2025)
Where two headings read alike, the source gives them in different places.

Columns and labels:
[1] = Plasma pharmacokinetics on cycle 1, day 15 (LC/MS, noncompartmental analysis); type: in vivo, human; settings: for AUC(0-t): read-out: AUC0-24; for clearance: read-out: CLss (converted); for concentration at 24 h: read-out: Ctau or C24
Method: Pharmacokinetic (PK) analysis was conducted on cycle 1, day 15 for both everolimus and neratinib with blood samples collected at pre-dose, 1, 3, 4, 6, 8, and 24 hours post-dose. Following good clinical and laboratory practices, blood was collected into K2-EDTA vacutainers, gently inverted and mixed, then centrifuged at 3000 rpm (1500 g) for 10 min at 4°C. The resultant plasma was placed into cryovials and frozen at −70°C until analysis.

[2] = cited from earlier work
[3] = cited from earlier work; remark: listed apart in the source
[4] = Dose Level 2: neratinib 200mg/day + everolimus 5mg/day, n=3, Cycle 1, Day 15, mean (range)
[5] = Dose Level 4: neratinib 240mg/day + everolimus 7.5mg/day, n=5, Cycle 1, Day 15, mean (range)
[6] = human, plasma, oral, Dose Level 2: neratinib 200mg/day + everolimus 5mg/day, n=3, Cycle 1, Day 15, mean (range)
[7] = human, plasma, oral, Dose Level 2: neratinib 200mg/day + everolimus 5mg/day, n=3, Cycle 1, Day 15, mean (range), read-out: Tmax
[8] = human, plasma, oral, Dose Level 4: neratinib 240mg/day + everolimus 7.5mg/day, n=5, Cycle 1, Day 15, mean (range)
[9] = monotherapy 5mg, N=4, ref O’Donnell et.al.
[10] = monotherapy 10mg, N=33, ref O’Donnell et.al.
[11] = monotherapy 10mg, N=33, ref O’Donnell et.al., listed as everolimus
[12] = monotherapy 240mg, N=3, ref Wong et.al.
[13] = monotherapy 240mg, N=3, ref Wong et.al., listed as neratinib

CO[C@H]1C[C@@H]2CC[C@@H](C)[C@@](O)(O2)C(=O)C(=O)N2CCCC[C@H]2C(=O)O[C@H]([C@H](C)C[C@@H]2CC[C@@H](OCCO)[C@H](OC)C2)CC(=O)[C@H](C)/C=C(\C)[C@@H](O)[C@@H](OC)C(=O)[C@H](C)C[C@H](C)/C=C/C=C/C=C/1C [Everolimus, everolimus]
AR (accumulation ratio) [1, 4]: 1.2 (1.1-1.3)
Ctau or C24 [1, 4]: 0.42 (0-1.1) ng/mL
AR (accumulation ratio) [1, 5]: 1.7 (1-2.6)
Ctau or C24 [1, 5]: 2.8 (0-9.9) ng/mL
Tmax [1, 5]: 4.8 h
AUC(0-inf) [1, 6]: 53.8 ng·h/mL
Cmax [1, 6]: 3.58 ng/mL
half-life [1, 6]: 8.2 h
AUC(0-t) [1, 6]: 24.3 ng·h/mL
clearance [1, 6]: 3370 mL/min
concentration at 24 h [1, 6]: 0.42 ng/mL
Tmax [1, 7]: 4.33 h
AUC(0-inf) [1, 8]: 253 ng·h/mL
Cmax [1, 8]: 8.5 ng/mL
half-life [1, 8]: 16.8 h
AUC(0-t) [1, 8]: 116 ng·h/mL
clearance [1, 8]: 2300 mL/min
concentration at 24 h [1, 8]: 2.8 ng/mL
Tmax ([1]; human, plasma, oral, both groups (DL 2 and DL 4), with neratinib, read-out: mean Tmax): > 4 h
TRAE all grades: Anemia [2, 9]: 1 (25)
TRAE all grades: Anorexia [2, 9]: 1 (25)
TRAE all grades: Constipation [2, 9]: 1 (25)
TRAE all grades: Mucositis [2, 9]: 2 (50)
TRAE all grades: Nausea [2, 9]: 1 (25)
TRAE all grades: Pruritus [2, 9]: 1 (25)
TRAE all grades: Rash [2, 9]: 2 (50)
Grade ≥ 3 treatment-related: Anorexia [2, 10]: 2 (6.1)
Grade ≥ 3 treatment-related: Dyspnea [2, 10]: 1 (3)
Grade ≥ 3 treatment-related: Epistaxis [2, 10]: 1 (3)
Grade ≥ 3 treatment-related: GI hemorrhage [2, 10]: 1 (3)
Grade ≥ 3 treatment-related: Hyperglycemia [2, 10]: 2 (6.1)
Grade ≥ 3 treatment-related: Hypertriglyceridemia [2, 10]: 1 (3)
Grade ≥ 3 treatment-related: Mucositis [2, 10]: 2 (6.1)
Grade ≥ 3 treatment-related: Nausea [2, 10]: 1 (3)
Grade ≥ 3 treatment-related: Pneumonia [2, 10]: 1 (3)
Grade ≥ 3 treatment-related: Rash [2, 10]: 1 (3)
Grade ≥ 3 treatment-related: Thrombocytopenia [2, 10]: 2 (6.1)
TRAE all grades: Anorexia [2, 10]: 11 (33.3)
TRAE all grades: Constipation [2, 10]: 7 (21.2)
TRAE all grades: Diarrhea [2, 10]: 7 (21.2)
TRAE all grades: Fatigue [2, 10]: 12 (36.4)
TRAE all grades: Headache [2, 10]: 7 (21.2)
TRAE all grades: Mucositis [2, 10]: 17 (51.5)
TRAE all grades: Nausea [2, 10]: 14 (42.4)
TRAE all grades: Rash [2, 10]: 20 (60.6)
TRAE all grades: Vomiting [2, 10]: 5 (15.2)
TRAE all grades: Mucositis [2, 11]: 51.5
TRAE all grades: Nausea [2, 11]: 42.4
TRAE all grades: Rash [2, 11]: 60.6
Tmax ([2]; single agent): 1 to 2 h
dose with acceptable tolerability suggested by PK analysis (MTD undetermined) ([2]; single agent): 10 mg/day

CCOc1cc2ncc(C#N)c(Nc3ccc(OCc4ccccn4)c(Cl)c3)c2cc1NC(=O)/C=C/CN(C)C [Neratinib, neratinib]
AR (accumulation ratio) [1, 4]: 1.41(1.2-1.9)
AUC0-∞ [1, 4]: 910 (195-2125) ng*h/mL
Ctau or C24 [1, 4]: 13.6 (2.6-31.8) ng/mL
AR (accumulation ratio) [1, 5]: 2.29 (1.4-3.8)
Ctau or C24 [1, 5]: 44 (14.5-125) ng/mL
Cmax [1, 6]: 35.8 ng/mL
half-life [1, 6]: 13.1 h
AUC(0-t) [1, 6]: 400 ng·h/mL
clearance [1, 6]: 9970 mL/min
concentration at 24 h [1, 6]: 13.6 ng/mL
Tmax [1, 7]: 4.8 h
AUC(0-inf) [1, 8]: 3930 ng·h/mL
Cmax [1, 8]: 83.4 ng/mL
half-life [1, 8]: 28.6 h
AUC(0-t) [1, 8]: 1170 ng·h/mL
clearance [1, 8]: 4820 mL/min
concentration at 24 h [1, 8]: 44 ng/mL
Tmax ([1]; human, plasma, oral, Dose Level 4: neratinib 240mg/day + everolimus 7.5mg/day, n=5, Cycle 1, Day 15, mean (range), read-out: Tmax): 4.2 h
TRAE all grades: Anorexia [3, 12]: 2 (67)
TRAE all grades: Diarrhea [3, 12]: 3 (100)
TRAE all grades: Fatigue [3, 12]: 2 (67)
TRAE all grades: Nausea [3, 12]: 2 (67)
TRAE all grades: Rash [3, 12]: 1 (33)
TRAE all grades: Vomiting [3, 12]: 1 (33)
TRAE all grades: Anorexia [3, 13]: 67
TRAE all grades: Diarrhea [3, 13]: 100
TRAE all grades: Fatigue [3, 13]: 67
TRAE all grades: Nausea [3, 13]: 67
MTD ([3]; monotherapy): 320 mg
